In PMC11217349, “Development of Nurr1 agonists from amodiaquine by scaffold hopping and fragment growing” (Communications Chemistry, 2024):
Where “and” joins values, the source holds several entries; their conditions need not be identical. Equal values may be shown once.

Key:
HEK293T cells = assay: WST-8 cytotoxicity assay, HEK293T; type: cell-based, human; details: for rel. absorbance (450 nm): HEK293T, WST-8, vs DMSO ctrl
Description: (§1) Each sample was prepared in four biologically independent repeats. After incubation for 24 h, the medium was refreshed and 10% water-soluble tetrazolinum salt (Cell Counting Kit-8, MedChemExpress) was added to assess metabolic activity. After 4 h, absorbance was measured at 450 nm using a Tecan Spark Cyto instrument (Tecan).

Nurr1 = system: Nurr1; design: method as in PMID 26124091; details: read-out: EC50 (Nurr1 agonism); cited from earlier work
N27 rat neurons = assay: WST-8 cytotoxicity assay, N27; type: cell-based
Description: as §1

[1] = system: full-length human Nurr1 (NBRE); design: method as in earlier work; details: cited from earlier work
[2] = molecular target: T1, human Nurr1 (hinge region and ligand binding domain) (Homo sapiens, UniProt P43354); assay: Gal4-Nurr1 hybrid reporter gene assay; type: cell-based
T1 construct: expressed in transfected cells; host or cells: HEK293T
T1 sequence (P43354 360-595 limits assumed): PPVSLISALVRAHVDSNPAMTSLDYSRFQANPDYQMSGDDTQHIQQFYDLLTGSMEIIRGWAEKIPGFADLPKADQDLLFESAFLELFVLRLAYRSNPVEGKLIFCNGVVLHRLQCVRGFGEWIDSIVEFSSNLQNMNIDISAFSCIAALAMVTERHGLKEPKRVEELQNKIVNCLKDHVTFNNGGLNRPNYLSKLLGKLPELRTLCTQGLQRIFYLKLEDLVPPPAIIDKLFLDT
Description: (§2) Nurr1 modulation was determined in a Gal4 hybrid reporter gene assay in HEK293T cells (German Collection of Microorganisms and Cell Culture GmbH, DSMZ) using pFR-Luc (Stratagene, La Jolla, CA, USA; reporter), pRL-SV40 (Promega, Madison, WI, USA; internal control) and pFA-CMV-hNurr1-LBD[14], coding for the hinge region and ligand binding domain of the canonical isoform of human Nurr1. […] After 24 h, the medium was changed to Opti-MEM without supplements, and cells were transiently transfected using Lipofectamine LTX reagent (Invitrogen, Carlsbad, CA, USA) according to the manufacturer’s protocol. Five hours after transfection, cells were incubated with the test compounds in Opti-MEM supplemented with penicillin (100 U/mL), streptomycin (100 μg/mL), and 0.1% DMSO for 16 h before luciferase activity was measured using the Dual-Glo Luciferase Assay System (Promega) according to the manufacturer’s protocol on a Tecan Spark luminometer (Tecan Deutschland GmbH, Crailsheim, Germany). Firefly luminescence was divided by Renilla luminescence and multiplied by 1000 resulting in relative light units (RLU) to normalize for transfection efficiency and cell growth. Fold activation was obtained by dividing the mean RLU of the test compound by the mean RLU of the untreated control. All samples were tested in at least three biologically independent experiments in duplicates. For dose-response curve fitting and calculation of EC50 values, the equation “[Agonist] vs. response -- Variable slope (four parameters)” was used in GraphPad Prism (version 7.00, GraphPad Software, La Jolla, CA, USA). Selectivity profiling was performed with identical procedures using pFA-CMV-Nur77-LBD[14], pFA-CMV-NOR-1-LBD[14], pFA-CMV-THRα-LBD[51], pFA-CMV-RARα-LBD[52], pFA-CMV-PPARα-LBD[53], pFA-CMV-PPARγ-LBD[53], pFA-CMV-PPARδ-LBD[53], pFA-CMV-LXRα-LBD[54], pFA-CMV-FXR-LBD[55] and pFA-CMV-hRXRα-LBD[56].

[3] = molecular target: T2, Nurr1-RXR heterodimer (DR5) (Homo sapiens, UniProt P43354); assay: Full-length Nurr1 reporter gene assay (DR5); type: cell-based; details: 10 nM to 3 µM
T2 construct: The full-length human nuclear receptor Nurr1 (pcDNA3.1-hNurr1-NE; Addgene plasmid #102363); host or cells: HEK293T
T2 sequence (P43354 whole entry): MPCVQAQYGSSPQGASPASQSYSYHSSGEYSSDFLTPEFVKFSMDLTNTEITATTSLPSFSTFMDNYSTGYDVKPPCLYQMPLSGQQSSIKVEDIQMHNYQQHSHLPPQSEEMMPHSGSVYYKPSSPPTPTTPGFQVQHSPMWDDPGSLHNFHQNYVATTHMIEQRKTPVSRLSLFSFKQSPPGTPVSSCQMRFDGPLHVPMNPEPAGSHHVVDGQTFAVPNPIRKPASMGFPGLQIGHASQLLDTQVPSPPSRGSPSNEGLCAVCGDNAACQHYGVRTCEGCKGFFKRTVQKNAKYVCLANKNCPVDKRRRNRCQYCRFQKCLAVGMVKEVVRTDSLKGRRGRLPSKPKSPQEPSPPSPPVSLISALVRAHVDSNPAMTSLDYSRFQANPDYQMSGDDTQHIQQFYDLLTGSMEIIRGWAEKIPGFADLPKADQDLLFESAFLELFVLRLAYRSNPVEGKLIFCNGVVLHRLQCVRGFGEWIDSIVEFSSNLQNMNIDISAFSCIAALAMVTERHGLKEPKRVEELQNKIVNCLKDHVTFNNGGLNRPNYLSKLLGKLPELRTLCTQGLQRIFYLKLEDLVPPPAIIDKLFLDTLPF
T2 sequence (P19793 whole entry partner): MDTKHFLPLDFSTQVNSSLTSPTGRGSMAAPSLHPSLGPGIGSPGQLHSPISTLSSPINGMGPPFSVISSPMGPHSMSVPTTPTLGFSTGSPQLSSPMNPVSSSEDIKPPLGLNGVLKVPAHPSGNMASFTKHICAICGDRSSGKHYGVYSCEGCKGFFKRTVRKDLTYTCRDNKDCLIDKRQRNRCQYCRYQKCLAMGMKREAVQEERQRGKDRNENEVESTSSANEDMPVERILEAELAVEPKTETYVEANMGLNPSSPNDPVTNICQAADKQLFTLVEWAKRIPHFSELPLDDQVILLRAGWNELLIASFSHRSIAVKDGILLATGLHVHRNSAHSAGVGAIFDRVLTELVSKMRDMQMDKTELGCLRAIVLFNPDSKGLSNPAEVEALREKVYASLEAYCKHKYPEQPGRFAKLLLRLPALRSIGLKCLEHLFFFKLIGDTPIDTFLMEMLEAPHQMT
Description: Activation of full-length human Nurr1 was studied in transiently transfected HEK293T cells using the reporter plasmids pFR-Luc-NBRE[14], pFR-Luc-POMC[14] or pFR-Luc-DR5[14] each containing one copy of the respective human Nurr1 response element NBRE Nl3, NurRE, or DR5. […] After 24 h, the medium was changed to Opti-MEM without supplements, and cells were transiently transfected using Lipofectamine LTX reagent (Invitrogen) according to the manufacturer’s protocol. Five hours after transfection, cells were incubated with the test compounds in Opti-MEM supplemented with penicillin (100 U/mL), streptomycin (100 μg/mL) and 0.1% DMSO for 16 h before luciferase activity was measured using the Dual-Glo Luciferase Assay System (Promega) according to the manufacturer’s protocol on a Tecan Spark luminometer (Tecan Deutschland GmbH). Firefly luminescence was divided by Renilla luminescence and multiplied by 1000 resulting in relative light units (RLU) to normalize for transfection efficiency and cell growth. Fold activation was obtained by dividing the mean RLU of the test compound by the mean RLU of the untreated control. All samples were tested in at least three biologically independent experiments in duplicates. For dose-response curve fitting and calculation of EC50 values, the equation “[Agonist] vs. response -- Variable slope (four parameters)” was used in GraphPad Prism (version 7.00, GraphPad Software).

Nur77 = molecular target: T3, Nur77 (Homo sapiens, UniProt P22736); assay: Gal4-Nur77 hybrid reporter gene assay; type: cell-based; details: 10 nM to 3 µM
T3 construct: chimeric receptors composed of the Gal4-DBD and the hinge region and LBD; expressed in transfected cells; host or cells: HEK293T
T3 sequence (P22736 360-595 limits assumed): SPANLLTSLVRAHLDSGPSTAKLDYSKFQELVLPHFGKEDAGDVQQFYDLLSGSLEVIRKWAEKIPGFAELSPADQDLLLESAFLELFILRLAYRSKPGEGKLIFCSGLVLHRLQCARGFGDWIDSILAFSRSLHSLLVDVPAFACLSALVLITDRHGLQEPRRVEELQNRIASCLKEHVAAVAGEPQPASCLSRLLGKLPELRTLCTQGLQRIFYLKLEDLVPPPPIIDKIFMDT
Description: as §2

[4] = molecular target: T4, human full-length Nurr1 homodimer (NurRE) (Homo sapiens, UniProt P43354); assay: Full-length Nurr1 reporter gene assay (NurRE); type: cell-based; details: 10 nM to 3 µM
T4 construct: The full-length human nuclear receptor Nurr1 (pcDNA3.1-hNurr1-NE; Addgene plasmid #102363); host or cells: HEK293T
T4 sequence (P43354 whole entry): as the sequence (P43354 whole entry) above
From the text: (§3) Activation of full-length human Nurr1 was studied in transiently transfected HEK293T cells using the reporter plasmids pFR-Luc-NBRE[14], pFR-Luc-POMC[14] or pFR-Luc-DR5[14] each containing one copy of the respective human Nurr1 response element NBRE Nl3, NurRE, or DR5. The full-length human nuclear receptor Nurr1 (pcDNA3.1-hNurr1-NE; Addgene plasmid #102363) and, for DR5, RXRα (pSG5-hRXR)[57] were overexpressed. pRL-SV40 (Promega) was used for the normalization of transfection efficacy and to observe test compound toxicity. […] After 24 h, the medium was changed to Opti-MEM without supplements, and cells were transiently transfected using Lipofectamine LTX reagent (Invitrogen) according to the manufacturer’s protocol. Five hours after transfection, cells were incubated with the test compounds in Opti-MEM supplemented with penicillin (100 U/mL), streptomycin (100 μg/mL) and 0.1% DMSO for 16 h before luciferase activity was measured using the Dual-Glo Luciferase Assay System (Promega) according to the manufacturer’s protocol on a Tecan Spark luminometer (Tecan Deutschland GmbH). Firefly luminescence was divided by Renilla luminescence and multiplied by 1000 resulting in relative light units (RLU) to normalize for transfection efficiency and cell growth. Fold activation was obtained by dividing the mean RLU of the test compound by the mean RLU of the untreated control. All samples were tested in at least three biologically independent experiments in duplicates. For dose-response curve fitting and calculation of EC50 values, the equation “[Agonist] vs. response -- Variable slope (four parameters)” was used in GraphPad Prism (version 7.00, GraphPad Software).

[5] = molecular target: T5, human full-length Nurr1 monomer (NBRE) (Homo sapiens, UniProt P43354); assay: Full-length Nurr1 reporter gene assay (NBRE); type: cell-based; details: 10 nM to 3 µM
T5 construct: The full-length human nuclear receptor Nurr1 (pcDNA3.1-hNurr1-NE; Addgene plasmid #102363); host or cells: HEK293T
T5 sequence (P43354 whole entry): as above
From the text: as §3

NOR-1 = molecular target: T6, NOR-1 (Homo sapiens, UniProt Q92570); assay: Gal4-NOR-1 hybrid reporter gene assay; type: cell-based; details: 10 nM to 3 µM
T6 construct: chimeric receptors composed of the Gal4-DBD and the hinge region and LBD; expressed in transfected cells; host or cells: HEK293T
T6 sequence (Q92570 394-623 limits assumed): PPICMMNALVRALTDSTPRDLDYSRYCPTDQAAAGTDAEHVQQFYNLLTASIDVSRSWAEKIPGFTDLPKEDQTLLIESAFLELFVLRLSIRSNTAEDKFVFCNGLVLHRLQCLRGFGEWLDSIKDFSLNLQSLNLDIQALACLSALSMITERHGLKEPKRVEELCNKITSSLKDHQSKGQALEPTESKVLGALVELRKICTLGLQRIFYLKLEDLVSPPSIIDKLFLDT
Description: as §2

Nurr1 LBD = molecular target: T7, Nurr1 LBD (Homo sapiens, UniProt P43354); assay: Isothermal titration calorimetry (ITC); type: binding; details: 25 °C
T7 construct: Nurr1 LBD protein (5–30 µM, expressed as described previously[21]); made in house
T7 sequence (P43354 360-595 limits assumed): as the sequence (P43354 360-595 limits assumed) above
Description: ITC experiments were conducted on an Affinity ITC instrument (TA Instruments, New Castle, DE) at 25 °C with a stirring rate of 75 rpm. Nurr1 LBD protein (5–30 µM, expressed as described previously[21]) in buffer (20 mM Tris pH 7.5, 100 mM NaCl, 5% glycerol) containing 1–4% DMSO was titrated with the test compounds (30–150 μM in the same buffer containing 1-4% DMSO) in 26 injections (1 × 1 µL, 25 × 3-4 μL) with an injection interval of 120-150 s. As control experiments, the test compounds were titrated to the buffer, and the buffer was titrated to the Nurr1 LBD protein under otherwise identical conditions. Results were analyzed using NanoAnalyze software (version 3.11.0, TA Instruments, New Castle, DE) with independent binding models.

| SMILES | toxicity (WST-8) (HEK293T cells; HEK293T cells, 24 h) | rel. absorbance (450 nm) (HEK293T cells; 10 µM) | rel. absorbance (450 nm) (HEK293T cells; 30 µM) [%] | EC50 (Nurr1) [µM] | rel. absorbance (450 nm) (N27 rat neurons; N27, 10 µM, WST-8, vs DMSO ctrl) | rel. absorbance (450 nm) / remaining metabolic activity (N27 rat neurons; N27, 30 µM, WST-8, vs DMSO ctrl) | toxicity (WST-8) (N27 rat neurons; N27 rat neurons, 24 h) | EC50 [1] [µM] | activation of Nurr1 ([2]; Gal4 hybrid reporter, 10 nM to 3 µM) | cytotoxicity in reporter gene assays ([2]; concentrations higher than 3 µM, drop in renilla luciferase control, HEK293T) | activation of full-length Nurr1 on DR5 [3] | activation of Nur77 (Nur77) | activation of full-length Nurr1 on NurRE [4] | activation of full-length Nurr1 on NBRE [5] | activation of NOR1 (NOR-1) | Kd (Nurr1 LBD) (Nurr1 LBD) |
| --- | --- | --- | --- | --- | --- | --- | --- | --- | --- | --- | --- | --- | --- | --- | --- | --- |
| CCN(CC)Cc1cc(Nc2ccnc3cc(Cl)ccc23)ccc1O [AQ, amodiaquine] | toxic | 75% and 70% | 47 | ~20 | 37% and 39% and 40% | 21% and 22% and 23% | toxic | – | – | – | – | – | – | – | – | – |
| CC(C)(O)c1cccc(-c2ccc3nc(-c4ccc(Cl)cc4)cn3c2)c1 [SA00025, reference compound] | – | – | – | – | – | – | – | 0.217 | No activation | considerably cytotoxic | no effect and no | No activation | no effect and no | no effect and no | No activation | potential weak binding |
